PMC7737769, “Pharmacological inhibition of syntenin PDZ2 domain impairs breast cancer cell activities and exosome loading with syndecan and EpCAM cargo” (Journal of Extracellular Vesicles, 2020)

Columns and labels:
GRASP55‐JAM‐C complex = tested on: T1, GRASP55‐JAM‐C complex; experiment: HTRF assay, GRASP55-JAM-C interaction; format: biochemical, human; details: 400µM compound; Figure 1c
T1 construct: Human GRASP55 tandem PDZ; made in house; host or cells: E. coli BL21 (DE3)
Method: (§1) HTRF assays were performed in white 96Well Small VolumeHiBase Polystyrene Microplates (Greiner) with a total working volume of […], as described previously (Milhas et al., 2016). Briefly, compounds were firstly dispensed into the wells at 400 µM for the primary screen or with serial DMSO dilutions for IC50 measurement assays. Primary screening assays have been performed in monoplicate while IC50 measurements were performed in triplicates. All HTRF reagents were purchased from CisBio Bioassays and reconstituted according to the supplier protocols. The plates were spun for 3 min at 500 × g and then incubated at 4°C for 16 h. The HTRF signals were recorded on a POLAR star Omega plate reader (BMG Labtech) with an excitation filter at 337 nm and fluorescence wavelength measurement at 620 and 665 nm, an integration delay of 60 µs and an integration time of 400 µs. Results were analysed with a two‐wavelength signal ratio: [intensity (665 nm)/intensity (620 nm)] × 10^4. Percentage of inhibition was calculated using the following equation: % inhibition = [(compound signal)–(min signal)]/[(max signal)–(min signal)] × 100, where ‘max signal’ is the signal ratio with the compound vehicle alone (DMSO) and ‘min signal’ the signal ratio without protein B. For IC50 measurements, values were normalized and fitted with Prism (GraphPad software) using the following equation: Y = 100/(1+((X/ IC50)ˆHill slope)).
(§2) The search strategy for PDZ2 syntenin inhibitors was based on the PDZ targeted library developed from Enamine compound collection. The PDZ targeted library was developed to cover virtually all PDZ domains. Consequently, to create the syntenin PDZ2 focused library we used two independent paths: docking of the PDZ targeted library against structures of syntenin PDZ2 available in Protein Data Bank and a random selection from the PDZ targeted library. The docking has produced 21 virtual hits, which were added to 118 randomly selected compounds (10% of the pan PDZ library). The resultant set of 139 compounds, syntenin PDZ library was subjected to experimental validation. The primary screen was performed at 400µM using a previously validated Homogeneous Time Resolved Fluorescence (HTRF) assay (Milhas et al., 2016). HTRF is based on Fluorescence Resonance Energy Transfer (FRET) between two fluorescent reagents. In the present case, Anti‐GST‐Terbium antibody and streptavidin‐bound Dynamic2 were used as donor and acceptor respectively. Interactions between GST PDZ‐fusion proteins and biotinylated peptides containing PDZ binding motifs were challenged with the potential inhibitors. In parallel, control experiments were performed with a biotinylated‐GST to verify that compounds were not interfering with the FRET signal in a non‐specific manner. To identify inhibitors of syntenin PDZ interactions, we tested for the effect of the 139 compounds on syntenin‐SDC2 and syntenin‐Frizzled7 complexes (Figure 1a; Table S1). When the HTRF signal dropped below 0.9, inhibition was considered as effective. […] Noteworthy, these compounds had no effect on other PDZ complexes like GRASP55‐JAM‐B or GRASP55‐JAM‐C and Erbin‐Erbb2 or Erbin‐P0071 (Figure 1c).

Erbin‐Erbb2 complex = tested on: T2, Erbin‐Erbb2 complex; experiment: HTRF assay, Erbin-ERBB2 interaction; format: biochemical, human; details: 400µM compound; Figure 1c
T2 construct: human Erbin PDZ domain; made in house; host or cells: E. coli BL21 (DE3)
Method: as §1, §2

[1] = target: T3, syntenin‐PDZ tandem (without C‐terminal domain) (Homo sapiens, UniProt O00560); experiment: Surface plasmon resonance (BIAcore), syntenin PDZ tandem; format: binding; details: compound in PBS, read-out: apparent KD, syntenin‐PDZ tandem (without C‐terminal domain)
T3 construct: made in house; host or cells: Biotin XCell F' E. coli cells
T3 sequence (O00560 107-275): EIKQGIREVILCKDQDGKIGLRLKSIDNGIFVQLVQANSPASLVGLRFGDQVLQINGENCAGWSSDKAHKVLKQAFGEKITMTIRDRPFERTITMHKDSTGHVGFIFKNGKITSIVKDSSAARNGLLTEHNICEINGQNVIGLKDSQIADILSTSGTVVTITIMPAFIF
Method: All SPR experiments were conducted with a BIAcore T200 instrument (GE Healthcare), at 25°C. A total of 8000 resonance units (RU) of biotinylated ligands (N‐terminal 6xHis tagged biotinylated syntenin tandem, syntenin tandem with C terminus, GRASP55 tandem or GST as control) were immobilized on a streptavidin‐sensor chip (GE Healthcare). Analytes (C58 and SyntOFF compounds) were perfused at 30 µl per min in running buffer (10 mM HEPES pH 7.4, 150 mM NaCl, 0.005% Tween20) at different concentrations. The reference channel was N‐terminal 6xHis tagged biotinylated GST protein. The injection time was 240 s, long enough for the sensorgrams to reach equilibrium, and the dissociation time was 240 s. To carry out these SPR experiments, we employed the method known as ‘single‐cycle kinetics’ described in 2006 by Karlsson and co‐workers (Karlsson, Katsamba, Nordin, Pol, & Myszka, 2006). It consists in injecting the analyte at increasing concentrations, without regeneration steps between each sample injection to avoid that folded‐proteins can be damaged after regeneration steps. Equilibrium dissociation constants (KD) were calculated by fitting the data to a simple Langmuir binding isotherm using GraphPad Prism. For determination of the apparent KD, signals obtained at equilibrium were plotted as a function of compound concentration. […]

MCF‐7 cells [2] = experiment: Wound-healing (migration) assay, MCF-7; format: cell-based; details: MCF-7, 100 µM, 24 h
Method: For migration assays, cells were treated with 1 ng/ml of mitomycin (Sigma M4287) overnight to inhibit cell division. Treated cells were plated in Ibidi culture‐inserts (Ibidi Cat‐80206) for 12 h to reach 90%–95% of confluence with or without compounds (100 µM). A wound was created by removing inserts from the dishes. Medium with or without compounds (100 µM) was refreshed to remove dead cells and the cells were observed under an inverted light microscope (Leica SP2) equipped with a camera. Images were taken by MetaMorph software every 10 min for 24 h. Measurements of cell velocity were calculated using the MetaMorph software.

MCF‐7 cells [3] = experiment: Soft agar colony formation assay; format: cell-based; details: wild-type MCF-7, 100 µM
Method: Agarose was melted in water and mixed with DMEM‐F12 medium pre‐incubated at 37°C to reach a 0.6% or a 0.36 % final concentration. A lower layer of 0.6% agarose was deposited in each well of a 96‐well plate except that the first and last rows and columns of the plate were filled with PBS to avoid drying. Agarose was allowed to cool for 15 min before the upper layer containing different concentrations of cells, a final concentration of 0.36% agarose and compounds (100 µM) was added. Compounds were added only once at the beginning of experiment. Each condition was tested in triplicate. Colonies were kept at 37°C in a 5% CO2 incubator and daily observed under microscope. At the end of the experiment, cells were tested for their ATP content, an indicator of their metabolic activity, using the Promega kit G7570. In this assay, ATP is used as a co‐factor for a luciferase reaction. Signals were analysed by measuring luminescence with a LUMIstar luminometer (BMG Labtech).

CC(C)[C@H](NC(=O)CSc1ccc(Cl)cc1)C(=O)O [Compound C58]
GST-GRASP JAM-C (signal ratio) (GRASP55‐JAM‐C complex): 1
GST-Erbin ERBB2 (signal ratio) (Erbin‐Erbb2 complex): 1.01
Kd [1]: 1030 µM
cell migration (wound closure) (MCF‐7 cells [2]): decreases
colony formation in soft agar (MCF‐7 cells [3]): decreases
